Experimental data as given in PubChem BioAssay AID2060485 (Molecular Pharmacology Branch, DTP, NCI, 2025).

System: A375 multi-cell spheroids with HUVEC/MSC, viability
Experiment: Anticancer human tumor A375 cell line growth inhibition [GQUAD];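 further: spheroids exposed to compounds for seven days before readout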
Conditions: for IC50: curve of first compound; for viability, T/C: stronger effect = lower value
Outline: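 Viability of tumor cells grown as complex spheroids with endothelial and stromal cells, exposed to drug combinations. Top concentration at or near clinical Cmax (else 10 microM), diluted in half-log increments.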

[1] = second compound 0.0316 µM, first compound 0.0316 µM
[2] = second compound 0.0316 µM, first compound 0.1 µM
[3] = second compound 0.0316 µM, first compound 0.316 µM
[4] = second compound 0.0316 µM, first compound 1 µM
[5] = second compound 0.0316 µM, first compound 3.16 µM
[6] = second compound 0.0316 µM, first compound 10 µM
[7] = second compound 0.1 µM, first compound 0.0316 µM
[8] = second compound 0.1 µM, first compound 0.1 µM
[9] = second compound 0.1 µM, first compound 0.316 µM
[10] = second compound 0.1 µM, first compound 1 µM
[11] = second compound 0.1 µM, first compound 3.16 µM
[12] = second compound 0.1 µM, first compound 10 µM
[13] = second compound 0.316 µM, first compound 0.0316 µM
[14] = second compound 0.316 µM, first compound 0.1 µM
[15] = second compound 0.316 µM, first compound 0.316 µM
[16] = second compound 0.316 µM, first compound 1 µM
[17] = second compound 0.316 µM, first compound 3.16 µM
[18] = second compound 0.316 µM, first compound 10 µM
[19] = second compound 1 µM, first compound 0.0316 µM
[20] = second compound 1 µM, first compound 0.1 µM
[21] = second compound 1 µM, first compound 0.316 µM
[22] = second compound 1 µM, first compound 1 µM
[23] = second compound 1 µM, first compound 3.16 µM
[24] = second compound 1 µM, first compound 10 µM
[25] = second compound 3.16 µM, first compound 0.0316 µM
[26] = second compound 3.16 µM, first compound 0.1 µM
[27] = second compound 3.16 µM, first compound 0.316 µM
[28] = second compound 3.16 µM, first compound 1 µM
[29] = second compound 3.16 µM, first compound 3.16 µM
[30] = second compound 3.16 µM, first compound 10 µM
[31] = second compound 10 µM, first compound 0.0316 µM
[32] = second compound 10 µM, first compound 0.1 µM
[33] = second compound 10 µM, first compound 0.316 µM
[34] = second compound 10 µM, first compound 1 µM
[35] = second compound 10 µM, first compound 3.16 µM
[36] = second compound 10 µM, first compound 10 µM

Structure (SMILES): C=CCn1c(=O)c2cnc(Nc3ccc(N4CCN(C)CC4)cc3)nc2n1-c1cccc(C(C)(C)O)n1 + Cc1cnc(CNC(=O)c2c(=O)c3ccc(N4CCCN(C)CC4)nc3n3c2sc2ccccc23)cn1
- IC50 (second compound 0.0316 µM): 900 nM
- IC50 (second compound 0.1 µM): 408 nM
- IC50 (second compound 0.316 µM): 96.7 nM
- IC50 (second compound 1 µM): < 31.6 nM
- IC50 (second compound 3.16 µM): < 31.6 nM
- IC50 (second compound 10 µM): < 31.6 nM
- viability, T/C [1]: 93.1%
- viability, T/C [2]: 95.3%
- viability, T/C [3]: 81%
- viability, T/C [4]: 48.3%
- viability, T/C [5]: 12.3%
- viability, T/C [6]: 9.5%
- viability, T/C [7]: 70.2%
- viability, T/C [8]: 69.7%
- viability, T/C [9]: 50.6%
- viability, T/C [10]: 38%
- viability, T/C [11]: 15.1%
- viability, T/C [12]: 9.57%
- viability, T/C [13]: 57.6%
- viability, T/C [14]: 50.6%
- viability, T/C [15]: 36.7%
- viability, T/C [16]: 28.1%
- viability, T/C [17]: 14.9%
- viability, T/C [18]: 10.7%
- viability, T/C [19]: 37.1%
- viability, T/C [20]: 33.7%
- viability, T/C [21]: 31.6%
- viability, T/C [22]: 25.3%
- viability, T/C [23]: 16.1%
- viability, T/C [24]: 11.4%
- viability, T/C [25]: 32%
- viability, T/C [26]: 33.6%
- viability, T/C [27]: 27.2%
- viability, T/C [28]: 25.7%
- viability, T/C [29]: 17%
- viability, T/C [30]: 12%
- viability, T/C [31]: 28.8%
- viability, T/C [32]: 28.9%
- viability, T/C [33]: 26.8%
- viability, T/C [34]: 21.6%
- viability, T/C [35]: 16.8%
- viability, T/C [36]: 13.8%

Structure (SMILES): CC(=O)O[C@H]1C(=O)[C@@]2(C)[C@H]([C@H](OC(=O)c3ccccc3)[C@]3(O)C[C@H](OC(=O)[C@H](O)[C@@H](NC(=O)c4ccccc4)c4ccccc4)C(C)=C1C3(C)C)[C@]1(OC(C)=O)CO[C@@H]1C[C@@H]2O + Cc1cnc(CNC(=O)c2c(=O)c3ccc(N4CCCN(C)CC4)nc3n3c2sc2ccccc23)cn1
- IC50 (second compound 0.0316 µM): 64.2 nM
- IC50 (second compound 0.1 µM): 36.1 nM
- IC50 (second compound 0.316 µM): < 31.6 nM
- IC50 (second compound 1 µM): < 31.6 nM
- IC50 (second compound 3.16 µM): < 31.6 nM
- IC50 (second compound 10 µM): < 31.6 nM
- viability, T/C [1]: 77.3%
- viability, T/C [2]: 33%
- viability, T/C [3]: 18.5%
- viability, T/C [4]: 14.2%
- viability, T/C [5]: 14.7%
- viability, T/C [6]: 19%
- viability, T/C [7]: 53.3%
- viability, T/C [8]: 24.9%
- viability, T/C [9]: 17.8%
- viability, T/C [10]: 21.1%
- viability, T/C [11]: 18.1%
- viability, T/C [12]: 23.2%
- viability, T/C [13]: 40.1%
- viability, T/C [14]: 25.9%
- viability, T/C [15]: 25.2%
- viability, T/C [16]: 21.2%
- viability, T/C [17]: 20.1%
- viability, T/C [18]: 22.8%
- viability, T/C [19]: 35%
- viability, T/C [20]: 24.3%
- viability, T/C [21]: 26.8%
- viability, T/C [22]: 28.2%
- viability, T/C [23]: 31%
- viability, T/C [24]: 32.1%
- viability, T/C [25]: 30.1%
- viability, T/C [26]: 23.1%
- viability, T/C [27]: 24.4%
- viability, T/C [28]: 28.7%
- viability, T/C [29]: 28.2%
- viability, T/C [30]: 33.7%
- viability, T/C [31]: 26.7%
- viability, T/C [32]: 23.3%
- viability, T/C [33]: 23.5%
- viability, T/C [34]: 23.3%
- viability, T/C [35]: 26%
- viability, T/C [36]: 29.6%

Structure (SMILES): CC(C)(O)C1CCC(Nc2ccc3ncc(-c4cccc(C(F)(F)F)c4)n3n2)CC1 (stereo not drawn) + Cc1cnc(CNC(=O)c2c(=O)c3ccc(N4CCCN(C)CC4)nc3n3c2sc2ccccc23)cn1
- IC50 (second compound 0.0316 µM): > 10000 nM
- IC50 (second compound 0.1 µM): 1730 nM
- IC50 (second compound 0.316 µM): 124 nM
- IC50 (second compound 1 µM): < 31.6 nM
- IC50 (second compound 3.16 µM): < 31.6 nM
- IC50 (second compound 10 µM): < 31.6 nM
- viability, T/C [1]: 104%
- viability, T/C [2]: 110%
- viability, T/C [3]: 103%
- viability, T/C [4]: 96.1%
- viability, T/C [5]: 65.3%
- viability, T/C [6]: 91.2%
- viability, T/C [7]: 85.9%
- viability, T/C [8]: 79.5%
- viability, T/C [9]: 78.2%
- viability, T/C [10]: 54.5%
- viability, T/C [11]: 41%
- viability, T/C [12]: 49.1%
- viability, T/C [13]: 55%
- viability, T/C [14]: 53.4%
- viability, T/C [15]: 45.5%
- viability, T/C [16]: 38.8%
- viability, T/C [17]: 31.7%
- viability, T/C [18]: 29.7%
- viability, T/C [19]: 38.5%
- viability, T/C [20]: 40.9%
- viability, T/C [21]: 38%
- viability, T/C [22]: 31.4%
- viability, T/C [23]: 27.6%
- viability, T/C [24]: 25%
- viability, T/C [25]: 32.5%
- viability, T/C [26]: 35.4%
- viability, T/C [27]: 33%
- viability, T/C [28]: 26.3%
- viability, T/C [29]: 17.5%
- viability, T/C [30]: 23.8%
- viability, T/C [31]: 29.4%
- viability, T/C [32]: 27.5%
- viability, T/C [33]: 28.9%
- viability, T/C [34]: 21.2%
- viability, T/C [35]: 8.8%
- viability, T/C [36]: 0.26%

Structure (SMILES): CCCS(=O)(=O)Nc1ccc(F)c(C(=O)c2c[nH]c3ncc(-c4ccc(Cl)cc4)cc23)c1F + Cc1cnc(CNC(=O)c2c(=O)c3ccc(N4CCCN(C)CC4)nc3n3c2sc2ccccc23)cn1
- IC50 (second compound 0.0316 µM): < 31.6 nM
- IC50 (second compound 0.1 µM): < 31.6 nM
- IC50 (second compound 0.316 µM): < 31.6 nM
- IC50 (second compound 1 µM): < 31.6 nM
- IC50 (second compound 3.16 µM): < 31.6 nM
- IC50 (second compound 10 µM): < 31.6 nM
- viability, T/C [1]: 34.1%
- viability, T/C [2]: 16.2%
- viability, T/C [3]: 9.28%
- viability, T/C [4]: 8.24%
- viability, T/C [5]: 5.87%
- viability, T/C [6]: 7.01%
- viability, T/C [7]: 27.9%
- viability, T/C [8]: 14.7%
- viability, T/C [9]: 10.1%
- viability, T/C [10]: 6.6%
- viability, T/C [11]: 5.83%
- viability, T/C [12]: 5.93%
- viability, T/C [13]: 23.5%
- viability, T/C [14]: 14%
- viability, T/C [15]: 7.97%
- viability, T/C [16]: 6.65%
- viability, T/C [17]: 5.74%
- viability, T/C [18]: 3.51%
- viability, T/C [19]: 21.8%
- viability, T/C [20]: 13.2%
- viability, T/C [21]: 8.1%
- viability, T/C [22]: 6.44%
- viability, T/C [23]: 6.08%
- viability, T/C [24]: 2.62%
- viability, T/C [25]: 16.2%
- viability, T/C [26]: 11.3%
- viability, T/C [27]: 8.15%
- viability, T/C [28]: 7.91%
- viability, T/C [29]: 6.35%
- viability, T/C [30]: 0.08%
- viability, T/C [31]: 16%
- viability, T/C [32]: 13.5%
- viability, T/C [33]: 8.99%
- viability, T/C [34]: 7.73%
- viability, T/C [35]: 6.2%
- viability, T/C [36]: 0.13%
